Experimental data taken from patent US5401490A, “Markers of tissue hypoxia” (priority 1989, dated 1995).
Where two headings read alike, the source gives them in different places.

Columns and labels:
[1] = Tissue distribution of radioactivity after intravenous injection; type: in vivo, BALB/C mice; details: mouse, iv, i.v.; for tissue uptake at 0.5 h: 0.50 h
Text: Tables 1 and 2 show the percent of injected IAZG and IAZA respectively per gram of wet tissue for selected tissues excised from BALB/C mice bearing EMT-6 tumors. This tumor model is known to have a high hypoxic fraction (0.33) (16). […] Hepatobiliary excretion may play a role in blood clearance as evidenced by elevated liver radioactivity and the appearance of activity in the intestine. Some oxidative or reductive metabolites of the 2-nitroimidazoles may also become bound to liver tissue, as was postulated in an in vivo study with ^14 C-MISO (6). This supposition is supported by the persistence of liver radioactivity at longer time periods. […] At 8 and 24 hours thyroid levels of IAZG are 7.2 and 30.9% of the total body activity and for IAZA they are 7.9 and 33.8% of total body activity. EXAMPLE 11 TISSUE DISTRIBUTION AND EXCRETION Tumor propagation of EMT-6 tumors in BALB/C mice was accomplished by subcutaneous injection of a cell suspension (10^5 cells in 0.1 mL) as described previously (10). Tumors reached about 10 mm in diameter (≈0.5 g) at 12 to 14 days, at which time each animal was given a bolus intravenous injection of ^125 I-labelled test drug via the tail vein (40 to 60 kBq in 0.1 mL). At set time periods the animals were asphyxiated with CO2 and exsanguinated via cardiac puncture. Tissues were dissected, weighed wet into vials and counted for ^125 I-activity. Whole-body activity was determined by summation of total activity in tissues and in residual carcass, and blood activity was determined from the blood aliquot, assuming blood to be 6.5% of the total body weight. EXAMPLE 12 Male BALB/c mice (20-25 g) were inoculated subcutaneously in the left flank with a suspension of murine EMT-6 cells (10^5 cells in 0.1 mL) (14). After 12 to 14 days, when the tumors reached the desired size (8-10 mm diameter), each mouse received a single intravenous (iv) injection of ^125 I-IAZA (59 kBq in 0.1 mL). […] Heart, lung, liver, spleen, muscle, bone, thyroid, kidney, stomach, small intestine, tail, tumor and skin were removed upon necropsy, weighed and analyzed for ^125 I using a Beckman Model 8000 gamma scintillation counter. The remaining carcass mass was also weighed and radioassayed.

EMT-6 tumor tissue = assay: Imaging study using ^125 I-IAZA; type: in vivo
[2] = blood, read-out: Percent of Injected Dose per Gram, Blood
[3] = bone, read-out: Percent of Injected Dose per Gram, Bone
[4] = carcass, read-out: Percent of Injected Dose per Gram, Carcass
[5] = heart, read-out: Percent of Injected Dose per Gram, Heart
[6] = intestine, read-out: Percent of Injected Dose per Gram, Intestine
[7] = kidney, read-out: Percent of Injected Dose per Gram, Kidney
[8] = liver, read-out: Percent of Injected Dose per Gram, Liver
[9] = lung, read-out: Percent of Injected Dose per Gram, Lung
[10] = muscle, read-out: Percent of Injected Dose per Gram, Muscle
[11] = spleen, read-out: Percent of Injected Dose per Gram, Spleen
[12] = stomach, read-out: Percent of Injected Dose per Gram, Stomach
[13] = tumor, read-out: Percent of Injected Dose per Gram, Tumor

SMILES: O=[N+]([O-])c1nccn1[C@@H]1O[C@H](CI)[C@@H](O)[C@@H]1O [IAZA, 1-(5-iodo-5-deoxy-β-D-arabino-furanosyl)-2-nitroimidazole]
- tissue uptake at 0.25 h [1, 2]: 2.63 ± 0.28 %ID/g
- tissue uptake at 0.5 h [1, 2]: 2.17 ± 0.85 %ID/g
- tissue uptake at 1 h [1, 2]: 1.84 ± 0.72 %ID/g
- tissue uptake at 2 h [1, 2]: 0.91 ± 1.56 %ID/g
- tissue uptake at 4 h [1, 2]: 0.45 ± 1.24 %ID/g
- tissue uptake at 8 h [1, 2]: 0.14 ± 0.07 %ID/g
- tissue uptake at 24 h [1, 2]: 0.037 ± 0.047 %ID/g
- tissue uptake at 0.25 h [1, 3]: 1.31 ± 0.18 %ID/g
- tissue uptake at 0.5 h [1, 3]: 1.37 ± 0.57 %ID/g
- tissue uptake at 1 h [1, 3]: 1.15 ± 0.52 %ID/g
- tissue uptake at 2 h [1, 3]: 0.58 ± 0.26 %ID/g
- tissue uptake at 4 h [1, 3]: 0.27 ± 0.09 %ID/g
- tissue uptake at 8 h [1, 3]: 0.08 ± 0.03 %ID/g
- tissue uptake at 24 h [1, 3]: 0.022 ± 0.03 %ID/g
- tissue uptake at 0.25 h [1, 4]: 2.68 ± 0.44 %ID/g
- tissue uptake at 0.5 h [1, 4]: 2.55 ± 0.37 %ID/g
- tissue uptake at 1 h [1, 4]: 2.23 ± 0.91 %ID/g
- tissue uptake at 2 h [1, 4]: 1.46 ± 0.29 %ID/g
- tissue uptake at 4 h [1, 4]: 0.89 ± 0.52 %ID/g
- tissue uptake at 8 h [1, 4]: 0.28 ± 0.12 %ID/g
- tissue uptake at 24 h [1, 4]: 0.038 ± 0.016 %ID/g
- tissue uptake at 0.25 h [1, 5]: 4.69 ± 0.91 %ID/g
- tissue uptake at 0.5 h [1, 5]: 3.56 ± 0.66 %ID/g
- tissue uptake at 1 h [1, 5]: 2.78 ± 1.3 %ID/g
- tissue uptake at 2 h [1, 5]: 1.03 ± 0.43 %ID/g
- tissue uptake at 4 h [1, 5]: 0.32 ± 0.24 %ID/g
- tissue uptake at 8 h [1, 5]: 0.22 ± 0.05 %ID/g
- tissue uptake at 24 h [1, 5]: 0.042 ± 0.017 %ID/g
- tissue uptake at 0.25 h [1, 6]: 5.42 ± 1.03 %ID/g
- tissue uptake at 0.5 h [1, 6]: 4.44 ± 0.62 %ID/g
- tissue uptake at 1 h [1, 6]: 4.63 ± 1.92 %ID/g
- tissue uptake at 2 h [1, 6]: 1.73 ± 0.55 %ID/g
- tissue uptake at 4 h [1, 6]: 0.81 ± 0.46 %ID/g
- tissue uptake at 8 h [1, 6]: 0.77 ± 0.36 %ID/g
- tissue uptake at 24 h [1, 6]: 0.041 ± 0.016 %ID/g
- tissue uptake at 0.25 h [1, 7]: 6.56 ± 0.63 %ID/g
- tissue uptake at 0.5 h [1, 7]: 5.67 ± 0.95 %ID/g
- tissue uptake at 1 h [1, 7]: 4.38 ± 1.25 %ID/g
- tissue uptake at 2 h [1, 7]: 1.8 ± 0.61 %ID/g
- tissue uptake at 4 h [1, 7]: 0.66 ± 0.39 %ID/g
- tissue uptake at 8 h [1, 7]: 0.34 ± 0.06 %ID/g
- tissue uptake at 24 h [1, 7]: 0.52 ± 0.004 %ID/g
- tissue uptake at 0.25 h [1, 8]: 8.65 ± 1.02 %ID/g
- tissue uptake at 0.5 h [1, 8]: 7.14 ± 1.13 %ID/g
- tissue uptake at 1 h [1, 8]: 5.63 ± 2.27 %ID/g
- tissue uptake at 2 h [1, 8]: 2.18 ± 0.8 %ID/g
- tissue uptake at 4 h [1, 8]: 0.95 ± 0.58 %ID/g
- tissue uptake at 8 h [1, 8]: 0.47 ± 0.1 %ID/g
- tissue uptake at 24 h [1, 8]: 0.098 ± 0.008 %ID/g
- tissue uptake at 0.25 h [1, 9]: 4.61 ± 0.82 %ID/g
- tissue uptake at 0.5 h [1, 9]: 3.77 ± 0.67 %ID/g
- tissue uptake at 1 h [1, 9]: 2.99 ± 1.41 %ID/g
- tissue uptake at 2 h [1, 9]: 1.15 ± 0.38 %ID/g
- tissue uptake at 4 h [1, 9]: 0.45 ± 0.3 %ID/g
- tissue uptake at 8 h [1, 9]: 0.33 ± 0.07 %ID/g
- tissue uptake at 24 h [1, 9]: 0.037 ± 0.008 %ID/g
- tissue uptake at 0.25 h [1, 10]: 3.09 ± 0.67 %ID/g
- tissue uptake at 0.5 h [1, 10]: 2.77 ± 0.54 %ID/g
- tissue uptake at 1 h [1, 10]: 2.19 ± 1.03 %ID/g
- tissue uptake at 2 h [1, 10]: 0.69 ± 0.29 %ID/g
- tissue uptake at 4 h [1, 10]: 0.24 ± 0.12 %ID/g
- tissue uptake at 8 h [1, 10]: 0.36 ± 0.31 %ID/g
- tissue uptake at 24 h [1, 10]: 0.02 ± 0.004 %ID/g
- tissue uptake at 0.25 h [1, 11]: 3.57 ± 0.67 %ID/g
- tissue uptake at 0.5 h [1, 11]: 3 ± 0.62 %ID/g
- tissue uptake at 1 h [1, 11]: 2.48 ± 1.25 %ID/g
- tissue uptake at 2 h [1, 11]: 0.93 ± 0.37 %ID/g
- tissue uptake at 4 h [1, 11]: 0.35 ± 0.2 %ID/g
- tissue uptake at 8 h [1, 11]: 0.18 ± 0.04 %ID/g
- tissue uptake at 24 h [1, 11]: 0.036 ± 0.034 %ID/g
- tissue uptake at 0.25 h [1, 12]: 4.36 ± 0.7 %ID/g
- tissue uptake at 0.5 h [1, 12]: 4.75 ± 1.05 %ID/g
- tissue uptake at 1 h [1, 12]: 3.95 ± 0.93 %ID/g
- tissue uptake at 2 h [1, 12]: 3.3 ± 0.93 %ID/g
- tissue uptake at 4 h [1, 12]: 1.81 ± 1.6 %ID/g
- tissue uptake at 8 h [1, 12]: 0.87 ± 0.54 %ID/g
- tissue uptake at 24 h [1, 12]: 0.067 ± 0.014 %ID/g
- tissue uptake at 0.25 h [1, 13]: 2.55 ± 0.86 %ID/g
- tissue uptake at 0.5 h [1, 13]: 3.48 ± 0.46 %ID/g
- tissue uptake at 1 h [1, 13]: 2.7 ± 0.39 %ID/g
- tissue uptake at 2 h [1, 13]: 2.55 ± 1.65 %ID/g
- tissue uptake at 4 h [1, 13]: 2.08 ± 0.27 %ID/g
- tissue uptake at 8 h [1, 13]: 1.22 ± 0.24 %ID/g
- tissue uptake at 24 h [1, 13]: 0.206 ± 0.23 %ID/g
- delineation of tumor tissue in imaging (EMT-6 tumor tissue): clearly delineated from surrounding tissue
